Assay results published in ChEMBL document CHEMBL1201862, “PubChem BioAssay data set” (2004).
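Assay format: 96-well plates, 48-hour exposure. The concentration for 50% growth inhibition is given as GI50.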 The source made the active and inactive calls. Rule as the data show it: active = GI50 up to about 1.1 µM and inactive = higher.

What was measured:
Assay in all cases: growth of human tumour cells (NCI), 48 h
SF-295 = test system: SF-295
SN12C = test system: SN12C
HOP-62 = test system: HOP-62
HOP-92 = test system: HOP-92
COLO 205 = test system: COLO 205
MOLT-4 = test system: MOLT-4
786-0 = test system: 786-0
EKVX = test system: EKVX
HCT-15 = test system: HCT-15
OVCAR-3 = test system: OVCAR-3
SW-620 = test system: SW-620
HCT-116 = test system: HCT-116
SR = test system: SR
NCI-H460 = test system: NCI-H460
IGROV-1 = test system: IGROV-1
M14 = test system: M14
DU-145 = test system: DU-145
MCF7 = test system: MCF7
Hs-578T = test system: Hs-578T

`Cc1cc2nc3c(C#N)c(-c4ccccc4)cc(Nc4ccc(F)cc4)n3c2cc1C` was tested, and the GI50 (SF-295) was 17.6 µM (inactive), the GI50 (SN12C) was 13.9 µM (inactive) and the GI50 (HOP-62) was 14.4 µM (inactive). For the same compound, the GI50 (HOP-92) was 5.01 µM (inactive), the GI50 (COLO 205) was > 100 µM (inactive) and the GI50 (MOLT-4) was 17.6 µM (inactive). The GI50 (786-0) was 8.49 µM (inactive), the GI50 (EKVX) was 14.6 µM (inactive) and the GI50 (HCT-15) was 9.25 µM. The GI50 (OVCAR-3) was 12.2 µM (inactive), the GI50 (SW-620) was 55.5 µM (inactive) and the GI50 (HCT-116) was 13.7 µM (inactive).
`Cn1cnc([N+](=O)[O-])c1Sc1nc2cccnc2[nH]1` was tested, and the GI50 (SF-295) was 37.7 µM (inactive), the GI50 (SR) was 35.9 µM (inactive) and the GI50 (SN12C) was 40.3 µM (inactive). The GI50 (NCI-H460) was > 100 µM (inactive), the GI50 (HOP-62) was > 100 µM (inactive) and the GI50 (HOP-92) was 83 µM (inactive). The GI50 (COLO 205) was 17.8 µM (inactive), the GI50 (MOLT-4) was 29.9 µM (inactive) and the GI50 (786-0) was > 100 µM (inactive). The GI50 (IGROV-1) was 71.4 µM (inactive), the GI50 (M14) was > 100 µM (inactive) and the GI50 (EKVX) was 28.5 µM (inactive). For the same compound, the GI50 (HCT-15) was over 100 µM, the GI50 (OVCAR-3) was > 100 µM (inactive) and the GI50 (SW-620) was 49.9 µM (inactive). For the same compound, the GI50 (HCT-116) was 90.6 µM (inactive).
`N#Cc1c2c(c(Nc3cccc(C(F)(F)F)c3)n3c1nc1ccccc13)CCC2` was tested, and the GI50 (SF-295) was > 100 µM (inactive), the GI50 (SN12C) was > 100 µM (inactive) and the GI50 (HOP-62) was > 100 µM (inactive). For the same compound, the GI50 (HOP-92) was 6.5 µM (inactive), the GI50 (COLO 205) was > 100 µM (inactive) and the GI50 (MOLT-4) was > 100 µM (inactive). The GI50 (786-0) was > 100 µM (inactive), the GI50 (EKVX) was > 100 µM (inactive) and the GI50 (DU-145) was > 100 µM (inactive). The GI50 (HCT-15) was over 100 µM, the GI50 (OVCAR-3) was > 100 µM (inactive) and the GI50 (SW-620) was > 100 µM (inactive). For the same compound, the GI50 (HCT-116) was > 100 µM (inactive).
For `O=C(c1ccccc1)C(c1ccccc1)C1(O)C(=O)Nc2c(Cl)ccc(Cl)c21` (stereo not given), the GI50 (SF-295) was 16.5 µM (inactive), the GI50 (SN12C) was 17.9 µM (inactive) and the GI50 (NCI-H460) was 14.3 µM (inactive). The GI50 (HOP-62) was 21.4 µM (inactive), the GI50 (HOP-92) was 19.6 µM (inactive) and the GI50 (COLO 205) was 22.2 µM (inactive). For the same compound, the GI50 (MOLT-4) was 15.9 µM (inactive), the GI50 (786-0) was 19.5 µM (inactive) and the GI50 (IGROV-1) was 20.6 µM (inactive). For the same compound, the GI50 (M14) was 16.8 µM (inactive), the GI50 (EKVX) was 18.2 µM (inactive) and the GI50 (HCT-15) was 18.4 µM. For the same compound, the GI50 (OVCAR-3) was 17.4 µM (inactive), the GI50 (SW-620) was 16.7 µM (inactive) and the GI50 (HCT-116) was 16.3 µM (inactive).
For `Cn1cnnc1SC(F)(F)c1nc2ccccc2o1`, the GI50 (SF-295) was > 100 µM (inactive), the GI50 (SR) was > 100 µM (inactive) and the GI50 (SN12C) was > 100 µM (inactive). The GI50 (NCI-H460) was > 100 µM (inactive), the GI50 (HOP-62) was > 100 µM (inactive) and the GI50 (HOP-92) was > 100 µM (inactive). The GI50 (MCF7) was > 100 µM (inactive), the GI50 (COLO 205) was > 100 µM (inactive) and the GI50 (MOLT-4) was > 100 µM (inactive). The GI50 (786-0) was > 100 µM (inactive), the GI50 (IGROV-1) was > 100 µM (inactive) and the GI50 (M14) was > 100 µM (inactive). The GI50 (DU-145) was > 100 µM (inactive), the GI50 (HCT-15) was over 100 µM and the GI50 (OVCAR-3) was > 100 µM (inactive). For the same compound, the GI50 (SW-620) was > 100 µM (inactive) and the GI50 (HCT-116) was > 100 µM (inactive).
For `CC(C)(C)[Si](C)(C)OCC#C[C@@]1(O)CCCCC1CC(Sc1ccccc1)Sc1ccccc1` (stereo not given in full), the GI50 (SF-295) was 14.7 µM (inactive), the GI50 (SR) was 14.8 µM (inactive) and the GI50 (SN12C) was 11.6 µM (inactive). For the same compound, the GI50 (NCI-H460) was 15.2 µM (inactive), the GI50 (HOP-62) was 16.9 µM (inactive) and the GI50 (HOP-92) was 15.6 µM (inactive). The GI50 (MCF7) was 10.2 µM (inactive), the GI50 (COLO 205) was 16.3 µM (inactive) and the GI50 (MOLT-4) was 11.6 µM (inactive). For the same compound, the GI50 (786-0) was 13.5 µM (inactive), the GI50 (IGROV-1) was 16.1 µM (inactive) and the GI50 (M14) was 18.2 µM (inactive). The GI50 (EKVX) was 16.4 µM (inactive), the GI50 (DU-145) was 15.8 µM (inactive) and the GI50 (HCT-15) was 14.9 µM. For the same compound, the GI50 (OVCAR-3) was 12.9 µM (inactive), the GI50 (SW-620) was 15.1 µM (inactive) and the GI50 (HCT-116) was 11.8 µM (inactive).
For `Cn1nc2n(c1=O)CCCN2`, the GI50 (SF-295) was > 100 µM (inactive), the GI50 (SR) was > 100 µM (inactive) and the GI50 (SN12C) was > 100 µM (inactive). The GI50 (NCI-H460) was > 100 µM (inactive), the GI50 (HOP-62) was > 100 µM (inactive) and the GI50 (HOP-92) was > 100 µM (inactive). For the same compound, the GI50 (COLO 205) was > 100 µM (inactive), the GI50 (786-0) was > 100 µM (inactive) and the GI50 (Hs-578T) was > 100 µM (inactive). The GI50 (IGROV-1) was > 100 µM (inactive), the GI50 (EKVX) was > 100 µM (inactive) and the GI50 (DU-145) was > 100 µM (inactive). The GI50 (HCT-15) was over 100 µM, the GI50 (OVCAR-3) was > 100 µM (inactive) and the GI50 (SW-620) was > 100 µM (inactive). The GI50 (HCT-116) was > 100 µM (inactive).
`c1ccc(/N=c2/sc3ccccc3s/c2=N/c2ccccc2)cc1` was tested, and the GI50 (SF-295) was 3.76 µM (inactive), the GI50 (SR) was 3.35 µM (inactive) and the GI50 (SN12C) was 1.75 µM (inactive). For the same compound, the GI50 (NCI-H460) was 1.96 µM (inactive), the GI50 (HOP-62) was 4.45 µM (inactive) and the GI50 (HOP-92) was 2 µM (inactive). The GI50 (COLO 205) was 1.92 µM (inactive), the GI50 (MOLT-4) was 5.18 µM (inactive) and the GI50 (786-0) was 1.74 µM (inactive). For the same compound, the GI50 (Hs-578T) was 2.68 µM (inactive), the GI50 (IGROV-1) was 1.62 µM (inactive) and the GI50 (EKVX) was 2.76 µM (inactive). For the same compound, the GI50 (DU-145) was 5.02 µM (inactive), the GI50 (HCT-15) was 1.75 µM and the GI50 (SW-620) was 1.72 µM (inactive). The GI50 (HCT-116) was 1.72 µM (inactive).
For `CCOC(=O)C(C)(C)Oc1ccc(Cl)cc1` [CLOFIBRATE], the GI50 (SF-295) was 319 µM (inactive), the GI50 (SN12C) was 320 µM (inactive) and the GI50 (NCI-H460) was 632 µM (inactive). The GI50 (HOP-62) was > 1000 µM (inactive), the GI50 (HOP-92) was 177 µM (inactive) and the GI50 (MCF7) was 325 µM (inactive). For the same compound, the GI50 (COLO 205) was 202 µM (inactive), the GI50 (MOLT-4) was 161 µM (inactive) and the GI50 (786-0) was 462 µM (inactive). The GI50 (Hs-578T) was 208 µM (inactive), the GI50 (IGROV-1) was 461 µM (inactive) and the GI50 (M14) was > 1000 µM (inactive). For the same compound, the GI50 (EKVX) was 201 µM (inactive), the GI50 (DU-145) was 935 µM (inactive) and the GI50 (HCT-15) was 435 µM. For the same compound, the GI50 (SW-620) was 614 µM (inactive) and the GI50 (HCT-116) was 214 µM (inactive).
